Measured values as given in US12474347B2, “Determination of protein information by recoding amino acid polymers into DNA polymers” (ABRUS BIO, INC., priority 2022, dated 2025).

Assay: Stability of oligonucleotides in anhydrous TFA simulating Edman peptide cleavage conditions (HPLC)
Assay type: physicochemical
Details: 1 hr in anhydrous TFA (DMSO/TFA, 45 deg C), FIG. 40
Experimental: A deprotected 15mer DNA oligonucleotide (CCTGTTGTCAATGAG, Sys #003, LO1) (SEQ ID NO: 126) was obtained from Integrated DNA Technologies. Cleavage, deprotection, and desalting were performed by IDT using their standard process. It was resuspended in Mol Bio grade H2O at 160 μM and a 40 μL aliquot was dried (Eppindorf, Vacufuge+, 45° C. for ˜2 hrs) prior to subjecting to Edman cleavage chemistry. The deprotected oligonucleotide material used for the baseline measurement was resuspended as above, but not dried.
A protected DNA oligonucleotide (5Phos/ATGAGTG/iFormInd/AGGGAAATAGCTTCTGGT CGAACTAGTTGTTCGTCAA/idSp/TTTCTTT, Sys #001, SOCAB) (SEQ ID NO: 125) was liberated from CPG support using EndoIV (NEB, M0304) and desalted (Zymo) to provide five 60 μL aliquots at 70 μM of/5Phos/ATGAGTG/iFormInd/[…] (SEQ ID NO: 75), which were dried as described above. The protected oligonucleotide material used for the baseline measurement was desalted as above, but not dried.
In anhydrous environment 40 μL of DMSO was added to each dried aliquot. Following disolution 40 μL TFA was added to each. Solutions were incubated at 45 deg C. for 0 mins, 30 mins, 60 mins, 4 hrs, and overnight. Samples were neutralized by addition of 228 μL of 4.1M imidazole solution at the conclusion of their incubation period. HPLC chromatograms were collected for each sample.

protected oligos: protected DNA oligonucleotide liberated from CPG support, /5Phos/ATGAGTG/iFormInd/AGGGAAATAGCTTCTGGTCGAACTAGTTGTTCGTCAA (SEQ ID NO: 75) (DNA ATGAGTGNAGGGAAATAGCTTCTGGTCGAACTAGTTGTTCGTCAA; 5' phosphate, internal formylindole, protecting groups; modified_base 1 OTHER; 5' phosphorylated nucleotide; modified_base 8 OTHER; Formylindole modified nucleotide)
HPLC peak after exposure to anhydrous TFA: largely unchanged
